Test results as given in patent US20160115146A1, “3-CARBOXY SUBSTITUTED COUMARIN DERIVATIVES WITH A POTENTIAL UTILITY FOR THE TREATMENT OF CANCER DISEASES” (UNIVERSITE CATHOLIQUE DE LOUVAIN, priority 2013, published 2016).

Columns and labels:
SiHa cells [1] = assay: Lactate consumption assay (inhibition of lactate influx); assay type: cell-based; conditions: Homo sapiens, 24 h treatment in lactate-containing medium
Procedure: SiHa cells were seeded on flat-bottom 24-well plates (500 000 cells/well) in normal DMEM. After 6 h of incubation, the culture medium was replaced by 1 ml of DMEM containing 10 mM lactate and incubated overnight for metabolic adaptation. Cells were then treated for 24 h with increasing concentrations of compounds (0.1, 1, 10 and 100 μM) in lactate-containing medium at 37° C. The supernatants were then centrifuged using deproteinizing columns (15 min, 10000 g at 4° C.) and lactate concentration was determined using the enzymatic assay commercialized by CMA Microdialysis AB on a CMA600 analyzer (Aurora Borealis).

SiHa cells [2] = assay: Cytotoxicity/anti-proliferative MTT assay, lactate as energy source; assay type: cell-based; conditions: Homo sapiens, DMEM 10 mM L-lactate without glucose, 72 h
Procedure: SiHa cells (human cervix squamous carcinoma) were routinely cultured in DMEM containing serum and antibiotics as previously described in Sonveaux, P. et al. J. Clin. Invest 2008 118, 3930. Two distinct media were used for the cytotoxicity assay, either DMEM containing 25 mM D-glucose (without pyruvate) or DMEM containing 10 mM L-lactate (without glucose). SiHa cells were seeded in flat-bottom 96-well plates in normal DMEM. After 6 h of incubation, the culture medium was replaced by 100 μl of glucose- or lactate-containing medium and incubated overnight for metabolic adaptation. SiHa cells were treated with the compounds of the invention at a concentration range of 0.01 μM to 100 μM. After a 72 h incubation at 37° C., cell medium was removed and replaced by freshly prepared MTT in PBS (1 mg/ml, 100 μl/well). After a 3 h incubation at 37° C., the plates were centrifuged (1000 g, 10 min at 4° C.) and the supernatant was removed before addition of DMSO (100 μl/well). Plates were kept for 10 min in the dark before reading at the spectrophotometer (Victor X4).

SiHa cells [3] = assay: [14C]-lactate uptake assay (inhibition of lactate influx); assay type: cell-based; conditions: Homo sapiens, 0.2 h, 2 μM [14C]-lactate for 12 min
Procedure: After 6 h of incubation, the culture medium was replaced by 1 ml of DMEM containing 10 mM lactate and incubated overnight for metabolic adaptation.

SiHa cells xenograft [4] = assay: In vivo anti-cancer activity against cervix cancer (SiHa cells xenograft model); conditions: nude NMRI mice, 3 mg/kg daily IP, FIG. 1(A)
Procedure: 7 weeks old female nude mice (Janvier®, 4-5 mice per group, Balb-c or NMRI) with various human cancer cell lines xenografts were used. SiHa cells were subcutaneously injected (10^6 to 2.10^6 (10^6 or 2.10^6) cells in sterile NaCl 0.9% per mouse) on the left flank of the mice (100 μl/mouse). […] Tumor volume was calculated as following: (length×width^2×π)/6 and expressed in mm^3. Tumor growth delay graphs and statistical analysis (Two-way ANOVA) were performed using GraphPad Prism 4 software.

HCT116 cells xenograft = assay: In vivo anti-cancer activity against colon cancer (HCT116 cells xenograft model); conditions: nude NMRI mice, 3 mg/kg daily IP, FIG. 2
Procedure: (§1) Seven weeks old female nude mice (Janvier®, 4-5 mice per group, NMRI), were used for the experiments. HCT116 cells were subcutaneously injected (2.10^6 cells in sterile NaCl 0.9% per mouse) on the left flank of the mice (100 μl/mouse). The treatment of the mice with compounds of the invention was started when tumor xenografts reached approximately 5 mm of length and width (Caliper® measurement). […] Tumor volume was calculated as the following: (length×width^2×π)/6 and expressed in mm^3. Tumor growth delay graphs and statistical analysis (Two-way ANOVA) were performed using GraphPad Prism 4 software.

SiHa cells xenograft [5] = assay: In vivo anti-cancer activity in combination with cisplatin against cervix cancer (SiHa cells xenograft model); conditions: nude NMRI mice, cisplatin 5 mg/kg IP day 0 and 7 plus compound 3 mg/kg daily IP day 1-6 and 8-11, FIG. 3
Procedure: as §1, with “SiHa” for “HCT116”

COc1ccc2cc(C(=O)O)c(=O)oc2c1 [cpd 2, 7-methoxy-2-oxo-2H-chromene-3-carboxylic acid]
IC50 (SiHa cells [1]): 2.3 µM
CC50 (SiHa cells [2]): 9.8 µM

O=C(O)c1cc2ccc(OCc3cc(C(F)(F)F)cc(C(F)(F)F)c3)cc2oc1=O [cpd 3, 7-((3,5-bis(trifluoromethyl)benzyl)oxy)-2-oxo-2H-chromene-3-carboxylic acid]
CC50 (SiHa cells [2]): 0.6 µM

O=C(O)c1cc2ccc(OCc3cccc4ccccc34)cc2oc1=O [cpd 5, 7-(naphthalen-1-ylmethoxy) 2-oxo-2H-chromene-3-carboxylic acid]
CC50 (SiHa cells [2]): 1.09 µM

O=C(O)c1cc2ccc(OCc3cccc(F)c3)cc2oc1=O [cpd 7, 7-((3-fluorobenzyl)oxy)-2-oxo-2H-chromene-3-carboxylic acid]
CC50 (SiHa cells [2]): 1.17 µM

O=C(O)c1cc2ccc(OCc3ccccc3)cc2oc1=O [cpd 9, 7-(benzyloxy)-2-oxo-2H-chromene-3-cartboxylic acid]
IC50 (SiHa cells [1]): 1.9 µM
CC50 (SiHa cells [2]): 9.1 µM

O=C(O)c1cc2ccc(OCc3ccccc3Cl)cc2oc1=O [cpd 11, 7-((2-chlorobenzyl)oxy)-2-oxo-2H-chromene-3-carboxylic acid]
CC50 (SiHa cells [2]): 4.23 µM

COc1cccc(COc2ccc3cc(C(=O)O)c(=O)oc3c2)c1 [cpd 13]
CC50 (SiHa cells [2]): 4.6 µM

O=C(O)c1cc2ccc(OCCc3ccccc3)cc2oc1=O [cpd 15, 2-oxo-7-phenethoxy-2H-chromene-3-carboxylic acid]
IC50 (SiHa cells [1]): 2.4 µM
CC50 (SiHa cells [2]): 5.6 µM

CC(C)=CCC/C(C)=C/COc1ccc2cc(C(=O)O)c(=O)oc2c1 [cpd 17, (E)-7-((3,7-dimethylocta-2,6-dien-1-yl)oxy)-2-oxo-2H-chromene-3-carboxylic acid]
CC50 (SiHa cells [2]): 11.7 µM

O=C(O)c1cc2ccc(OCc3ccc(Cl)c(Cl)c3)cc2oc1=O [cpd 19, 7-((3,4-dichlorobenzyl)oxy)-2-oxo-2H-chromene-3-carboxylic acid]
CC50 (SiHa cells [2]): 68.4 µM

COc1ccc(OC)c(COc2ccc3cc(C(=O)O)c(=O)oc3c2)c1 [cpd 22]
CC50 (SiHa cells [2]): 0.702 µM

O=C(O)c1cc2ccc(OCn3nnc4ccccc43)cc2oc1=O [cpd 24, 7-((1H-benzo[d][1,2,3]triazol-1-yl)methoxy)-2-oxo-2H-chromene-3-carboxylic acid]
CC50 (SiHa cells [2]): 1.1 µM

O=C(O)c1cc2ccc(OCc3ccc(F)cc3)cc2oc1=O [cpd 26, 7-((4-fluorobenzyl)oxy)-2-oxo-2H-chromene-3-carboxylic acid]
IC50 (SiHa cells [1]): 1.25 µM
CC50 (SiHa cells [2]): 3.9 µM

O=C(O)c1cc2ccc(OCc3ccc(C(F)(F)F)cc3)cc2oc1=O [cpd 28, 2-oxo-7-((4-(trifluoromethyl)benzyl)oxy)-2H-chromene-3-carboxylic acid]
CC50 (SiHa cells [2]): 6.86 µM

O=C(O)c1cc2ccc(OC3Cc4ccccc4C3)cc2oc1=O [cpd 30, 7-((2,3-dihydro-1H-inden-2-yl)oxy)-2-oxo-2H-chromene-3-carboxylic acid]
CC50 (SiHa cells [2]): 7.8 µM

CN(Cc1ccccc1)c1ccc2cc(C(=O)O)c(=O)oc2c1 [cpd 31, 7-(benzyl(methyl)amino)-2-oxo-2H-chromene-3-carboxylic acid]
IC50 (SiHa cells [3]): 0.011 µM
IC50 (SiHa cells [1]): 0.059 µM
CC50 (SiHa cells [2]): 0.22 µM
Tumor growth delay (tumor volume) (SiHa cells xenograft [4]): clear tumor growth delay
Tumor growth delay (tumor volume) (HCT116 cells xenograft): clear tumor growth delay
Delay in tumor relapse (tumor volume) (SiHa cells xenograft [5]): clear delay in tumor relapse

O=C(O)c1cc2ccc(N3CCCC3)cc2oc1=O [cpd 33, 2-oxo-7-(pyrrolidin-1-yl)-2H-chromene-3-carboxylic acid]
CC50 (SiHa cells [2]): 14.3 µM

O=C(O)c1cc2ccc(N3CCOCC3)cc2oc1=O [cpd 34, 7-morpholino-2-oxo-2H-chromene-3-carboxylic acid]
IC50 (SiHa cells [1]): 7.9 µM
CC50 (SiHa cells [2]): 17.5 µM

CN(C)c1ccc2cc(C(=O)O)c(=O)oc2c1 [cpd 35, 7-(dimethlamino)-2-oxo-2H-chromene-3-carboxylic acid]
IC50 (SiHa cells [1]): 1.4 µM
CC50 (SiHa cells [2]): 2.9 µM

O=C(O)c1cc2cc3c4c(c2oc1=O)CCCN4CCC3 [cpd 37, 11-oxo-2,3,5,6,7,11-hexahydro-1H-pyrano[2,3 - f]pyrido[3,2,1-ij]quinoline-10-carboxylic acid]
IC50 (SiHa cells [1]): 1.3 µM
CC50 (SiHa cells [2]): 1.2 µM

O=C(O)c1cc2ccc(NCc3ccccc3)cc2oc1=O [cpd 39, 7-(benzylamino)-2-oxo-2H-chromene-3-carboxylic acid]
CC50 (SiHa cells [2]): 1.79 µM

CCN(Cc1ccccc1)c1ccc2cc(C(=O)O)c(=O)oc2c1 [cpd 41, 7-(benzyl(ethyl)amino)-2-oxo-2H-chromene-3-carboxylic acid]
CC50 (SiHa cells [2]): 1.9 µM

CC(C)CN(Cc1ccccc1)c1ccc2cc(C(=O)O)c(=O)oc2c1 [cpd 43, 7-(benzyl(isobutyl)amino)-2-oxo-2H-chromene-3-carboxylic acid]
CC50 (SiHa cells [2]): 16.3 µM

CCCN(Cc1ccccc1)c1ccc2cc(C(=O)O)c(=O)oc2c1 [cpd 44, 7-(benzyl(propyl)amino)-2-oxo-2H-chromene-3-carboxylic acid]
CC50 (SiHa cells [2]): 11.1 µM

CC(C)CN(C)c1ccc2cc(C(=O)O)c(=O)oc2c1 [cpd 45, 7-(isobutyl(methyl)amino)-2-oxo-2H-chromene-3-carboxylic acid]
CC50 (SiHa cells [2]): 0.22 µM

CN(Cc1cccs1)c1ccc2cc(C(=O)O)c(=O)oc2c1 [cpd 46, 7-(methyl(thiophen-2-ylmethyl)amino)-2-oxo-2H-chromene-3-carboxylic acid]
CC50 (SiHa cells [2]): 0.21 µM

CN(Cc1cccc(F)c1)c1ccc2cc(C(=O)O)c(=O)oc2c1 [cpd 47, 7-((3-fluorobenzyl)(methyl)amino)-2-oxo-2H-chromene-3-carboxylic acid]
CC50 (SiHa cells [2]): 0.04 µM

CN(CC1CCCCC1)c1ccc2cc(C(=O)O)c(=O)oc2c1 [cpd 48, 7-((cyclohexylmethyl)(methyl)amino)-2-oxo-2H-chromene-3-carboxylic acid]
CC50 (SiHa cells [2]): 0.2 µM

COc1cccc(CN(C)c2ccc3cc(C(=O)O)c(=O)oc3c2)c1 [cpd 49, 7-((3-methoxybenzyl)(methyl)amino)-2-oxo-2H-chromene-3-carboxylic acid]
CC50 (SiHa cells [2]): 0.07 µM

CN(CC1CCOCC1)c1ccc2cc(C(=O)O)c(=O)oc2c1 [cpd 50, 7-(methyl((tetrahydro-2H-pyran-4-yl)methyl)amino)-2-oxo-2H-chromene-3-carboxylic acid]
CC50 (SiHa cells [2]): 0.1 µM

O=C(O)c1cc2ccc(N(Cc3ccccc3)Cc3ccccc3)cc2oc1=O [cpd 51, 7-(dibenzylamino)-2-oxo-2H-chromene-3-carboxylic acid]
CC50 (SiHa cells [2]): 12.7 µM

O=C(Nc1ccc2cc(C(=O)O)c(=O)oc2c1)c1ccccc1 [cpd 116, 7-benzamido-2-oxo-2H-chromene-3-carboxylic acid]
CC50 (SiHa cells [2]): 1.5 µM
